Experimental data as given in patent publication US20210161868A1, “ANTI-INFLAMMATORY THERAPY IN ARRHYTHMOGENIC CARDIOMYOPATHY (ACM)” (Beth Israel Deaconess Medical Center, Inc., priority 2018, published 2021).
“Also recorded” adds a separate entry of the source.

How the values were obtained:
[1] = tested on: neonatal rat ventricular myocytes (NRVMs) expressing JUP^2157del2; test: In vitro cytokine assay of NRVM culture media; type: cell-based; conditions: Bay11-7082 5 μM, 24 hours
Experimental: (§1) Primary cultures were prepared from disaggregated ventricles of 1-day-old Wistar rat pups (Charles River) as previously described.^15 Cell suspensions were pre-plated to reduce fibroblast content, placed in collagen-coated chamber slides at a density of 2.4×10^5 cells/cm^2, and grown for 4 days at 37° C. in M199 medium (GIBCO) (supplemented with penicillin, 20 U/mL; streptomycin, 20 μg/mL; 10% neonatal calf serum and 0.1 mM bromodeoxyuridine) in a humidified atmosphere containing 1% CO2. Epinephrine (0.01 μmol/mL) was added during the first 24 hours of culture. At 24 hours post-seeding, cultures were transfected with an adenoviral construct expressing plakoglobin (JUP) with the 2157del2 mutation, as previously reported.^15 At 24 hours post-transfection, cultures were treated with Bay11-7082 (Sigma, 5 mM) for an additional 24 hours. […]
Culture media from cells expressing 2157del2 plakoglobin in the presence or absence of Bay11-7082 (5 μM, 24 hours) were collected after 96 hours in culture, mixed with a cocktail of biotinylated detection antibodies, and incubated with nitrocellulose membranes spotted in duplicate with control and capture antibodies (R&D Systems). […] The cytokine array specifically detected rat cytokines whereas cells were grown in media containing neonatal bovine serum. […]

[2] = tested on: Dsg2^mut/mut mice; test: Morphometry, echocardiography and electrocardiography in Dsg2^mut/mut mice; type: in vivo
Text: (§2) All animal studies were in full compliance with policies of Beth Israel Deaconess Medical Center, Johns Hopkins School of Medicine and St. George's University of London. They also conformed to the Guide for the Care and Use of Laboratory Animals from the National Institutes of Health (NIH publication no. 85-23, revised 1996). In vitro studies involved transfection of cultured neonatal rat ventricular myocytes with a mutant allele of the desmosomal protein plakoglobin (2157de12) as previously described.^15 In vivo studies were performed in mice with homozygous knock-in of a mutant form of Dsg2, the gene encoding the desmosomal cadherin desmoglein-2 (Dsg2^mut/mut mice) as previously described.^6 This mutation entails loss of exons 4 and 5 which causes a frameshift and premature termination of translation.
Three cohorts of mice at 8 weeks of age were anesthetized and implanted with subcutaneous osmotic mini-pumps (Alzet, Model 1004). These included: 1) Dsg2^mut/mut mice with pumps containing 50 μg/μL Bay11-7082 in a vehicle of 65% DMSO, 15% ethanol, and 20% saline; 2) Dsg2^mut/mut mice with pumps containing an equivalent volume of vehicle; and 3) wildtype mice with pumps containing vehicle. Mice in cohort 1 received 5 mg/kg/day of Bay11-7082 by continuous infusion; those in cohorts 2 and 3 received an equivalent volume of vehicle each day for 4 weeks. At 12 weeks of age, mice were re-anesthetized and new Alzet pumps were implanted for an additional 4 weeks of treatment.
At the end of the 8 week drug treatment protocol, cardiac function was assessed in all mice by transthoracic echocardiography and electrocardiography (ECG) as previously described. Echocardio-graphic measurements were made according to American Society of Echocardiography guidelines^48 in non-sedated mice using a Vevo 2100 Visualsonic imaging system. Parasternal long-axis views of the left ventricle (LV), at the level of the papillary muscles, were acquired at a sweep speed of 200 mm/second. Three to five measurements were acquired from each mouse and averaged to assess LV function as previously described. ECG measurements made in anesthetized mice in which wire electrodes had been sutured in place in the right and left arms to obtain standard lead I ECG recordings. Recordings were captured via PowerLab and analyzed via the LabChart Pro ECG Analysis Add-on Software (LabChart Pro 8, MLS360/8, AD Intruments). ECGs were recorded for 15 minutes and all ECG wave and amplitude parameters were analyzed as signal averaged ECGs (SAECGs). Following completion of functional studies, mice were euthanized and hearts were excised and processed for additional studies either by freezing fresh tissue (−80C) or fixing tissue in 10% buffered formalin and embedding in paraffin.

[3] = tested on: neonatal rat ventricular myocytes (NRVMs) expressing JUP^2157del2; test: ACM features (protein distribution, immunofluorescence) in NRVMs expressing mutant plakoglobin; type: cell-based; parameters: pattern of distribution of plakoglobin, Cx43 and GSK3β: dose or concentration left out as unconfirmed
Text: as §2
as §1, with “culture.” for “culture. At 24 hours post-seeding, cultures were transfected with an adenoviral construct expressing plakoglobin (JUP) with the 2157del2 mutation, as previously reported.^15 At 24 hours post-transfection, cultures were treated with Bay11-7082 (Sigma, 5 mM) for an additional 24 hours.”

[4] = Dsg2^mut/mut + Bay11-7082, n=17, mean±SEM, 8 week treatment
[5] = Dsg2^mut/mut mice, continuous infusion over 8 weeks

For `Cc1ccc(S(=O)(=O)/C=C/C#N)cc1` [Bay 11-7082], which “accumulation of cytokines and chemoattractants in culture media” value [1] is on record?
The value was “reduces; also recorded: greatly reduced”.

What about the “FS, fractional shortening” value [2, 4] of the same compound?
Its value is 49.5 ± 1.9%.

What about the “HW/BW, heart weight/body weight” value [2, 4] of the same compound?
Its value is 4.7 ± 0.1 mg/g.

And the “IVSd, interventricular septum thickness at end-diastole” value [2, 4]?
Its value is 0.95 ± 0.02 mm.

And the “LVIDd, left ventricular internal diameter at end-diastole” value [2, 4]?
Its value is 2.96 ± 0.06 mm.

And the “LVIDs, left ventricular internal diameter at end-systole” value [2, 4]?
Its value is 1.50 ± 0.08 mm.

What about the “LVM, left ventricular mass” value [2, 4] of the same compound?
The value was 92.9 ± 3.08 mg.

What about the “P-Amp, P-wave amplitude” value [2, 4] of the same compound?
Its value is 0.06 ± 0.003 mV.

What about the “PR-I, P-R interval” value [2, 4] of the same compound?
Its value is 39.0 ± 0.9 ms.

What about the “Pd, P-wave duration” value [2, 4] of the same compound?
The value was 10.1 ± 0.5 ms.

And the “Q-Amp, Q-wave amplitude” value [2, 4]?
Its value is −0.06 ± 0.01 mV.

What about the “QRSd, QRS wave duration” value [2, 4] of the same compound?
Its value is 11.4 ± 0.4 ms.

And the “R-Amp, R-wave amplitude” value [2, 4]?
The value was 0.66 ± 0.04 mV.

What about the “RR-I, R-R interval” value [2, 4] of the same compound?
Its value is 118 ± 2.5 ms.

What about the “S-Amp, S-wave amplitude” value [2, 4] of the same compound?
Its value is −0.09 ± 0.04 mV.

And the “abnormalities in the signal averaged ECG” value [2, 5]?
Its value is “corrected”.

What about the contractile function [2, 5] of the same compound?
The contractile function was “normalized”.

And the “treated ACM mice that failed to respond to NFκB inhibition” value ([2]; related to technical failure of drug delivery by Alzet minipumps)?
Its value is 3 of 17.

What about the “in vitro readouts of the ACM phenotype (plakoglobin, Cx43, apoptosis, cytokines)” value ([3]; NRVMs expressing mutant plakoglobin) of the same compound?
The value was “blocked; also recorded: completely reversed”.

And the “pattern of distribution of plakoglobin, Cx43 and GSK3β” value ([3]; transfected NRVMs, Bay11-7082, 24 hours)?
Its value is “normalized; also recorded: indistinguishable from that seen in control”.
